Calls of active or inactive are those of the source. The rule behind the calls is not given here.
Experiments:
HCT-116 [1] = test: Induction of cell cycle arrest in human HCT-116 cells at 5 to 20 uM by PI staining based flow cytometry analysis; assay type: functional; conditions: dose 5-20 µM, time 24-48 hrs, TDE = time-dependent effect
HCT-116 [2] = test: Induction of cell cycle arrest in human HCT-116 cells assessed as accumulation of cells at Sub-G1 phase at 20 uM incubated for 24 hrs by PI staining based flow cytometry analysis (reference value: 1.1 +/- 0.1%); assay type: functional
HCT-116 [3] = test: Induction of cell cycle arrest in human HCT-116 cells assessed as accumulation of cells at G2 phase at 5 uM incubated for 48 hrs by PI staining based flow cytometry analysis (reference value: 26%); assay type: functional
HCT-116 [4] = test: Induction of cell cycle arrest in human HCT-116 cells assessed as accumulation of cells at S phase at 5 uM incubated for 48 hrs by PI staining based flow cytometry analysis (reference value: 17%); assay type: functional
HCT-116 [5] = test: Induction of cell cycle arrest in human HCT-116 cells incubated for 24 to 48 hrs by PI staining based flow cytometry analysis; assay type: functional; conditions: dose 5-20 µM, time 24-48 hrs
HCT-116 [6] = test: Induction of PARP1 trapping in human HCT-116 cells assessed as change in PARP1 level in chromatin fraction at 20 uM incubated for 4 to 8 hrs by SDS PAGE analysis; assay type: functional, cell-based; conditions: time 4-8 hrs
[7] = target: T1, DNA topoisomerase 1 (Homo sapiens) (UniProt P11387); test: Induction of TOP1 degradation in human HCT-116 cells at 20 uM after 2 to 24 hrs by alkaline lysis method; assay type: cell-based; conditions: time 2-24 hrs
T1 sequence (whole entry): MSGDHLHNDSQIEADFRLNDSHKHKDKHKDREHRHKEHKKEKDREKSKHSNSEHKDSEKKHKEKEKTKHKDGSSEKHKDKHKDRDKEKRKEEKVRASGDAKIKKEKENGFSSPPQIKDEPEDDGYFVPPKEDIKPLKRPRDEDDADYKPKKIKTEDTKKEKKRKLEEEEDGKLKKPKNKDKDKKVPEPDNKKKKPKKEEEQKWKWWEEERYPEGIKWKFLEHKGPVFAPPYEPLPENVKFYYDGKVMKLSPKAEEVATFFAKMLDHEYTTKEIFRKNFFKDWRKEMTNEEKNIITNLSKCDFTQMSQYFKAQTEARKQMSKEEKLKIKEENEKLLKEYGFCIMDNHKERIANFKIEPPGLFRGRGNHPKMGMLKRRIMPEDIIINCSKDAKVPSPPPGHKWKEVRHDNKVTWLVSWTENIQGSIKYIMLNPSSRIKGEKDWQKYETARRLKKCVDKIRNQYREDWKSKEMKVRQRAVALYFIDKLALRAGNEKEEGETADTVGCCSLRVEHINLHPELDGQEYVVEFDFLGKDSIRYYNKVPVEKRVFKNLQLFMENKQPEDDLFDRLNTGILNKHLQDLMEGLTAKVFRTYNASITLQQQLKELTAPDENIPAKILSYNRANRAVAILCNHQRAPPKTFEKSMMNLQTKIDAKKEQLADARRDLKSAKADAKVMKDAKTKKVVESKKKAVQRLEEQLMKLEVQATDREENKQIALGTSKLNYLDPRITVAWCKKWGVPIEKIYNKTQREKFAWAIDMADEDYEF

[8] = tested on: DNA topoisomerase 1/Deoxyribonucleic acid (Homo sapiens); test: Induction of TOP1-DNA covalent complex stabilization in human HCT-116 cells at 20 uM by immunofluorescence microscopic assay; assay type: cell-based; conditions: time 2-8 hrs, TDE = time-dependent effect
HCT-116 [9] = test: Induction of PARylation in human HCT-116 cells at 20 uM incubated for 2 to 8 hrs by Western blotting analysis; assay type: functional, cell-based; conditions: time 2-8 hrs
HCT-116 [10] = test: Induction of cell cycle arrest in human HCT-116 cells assessed as accumulation of cells at Sub-G1 phase at 10 uM incubated for 24 hrs by PI staining based flow cytometry analysis (reference value: 1.1 +/- 0.1%); assay type: functional
[11] = tested on: DNA topoisomerase 1/Deoxyribonucleic acid (Homo sapiens); test: Induction of TOP1-DNA covalent complex stabilization in human HCT-116 cells at 10 to 20 uM after 4 to 6 hrs by RADAR assay; assay type: cell-based; conditions: dose 10-20 µM, time 4-6 hrs
HCT-116 [12] = test: Induction of DNA double stranded break in human HCT-116 cells assessed as increase in gammaH2AX level at 20 uM after 4 to 8 hrs by immunofluorescence assay; assay type: functional, cell-based; conditions: time 4-8 hrs
MCF-10A = test: Cytotoxicity against human MCF-10A cells at 50 uM incubated for 72 hrs by MTT assay; assay type: toxicity, cell-based
HCT-116 [13] = test: Induction of cell cycle arrest in human HCT-116 cells assessed as accumulation of cells at Sub-G1 phase at 5 uM incubated for 48 hrs by PI staining based flow cytometry analysis (reference value: 2.7 +/- 0.4%); assay type: functional
HCT-116 [14] = test: Induction of cell cycle arrest in human HCT-116 cells assessed as accumulation of cells at Sub-G1 phase at 5 uM incubated for 24 hrs by PI staining based flow cytometry analysis (reference value: 1.1 +/- 0.1%); assay type: functional
[15] = tested on: DNA topoisomerase 1/Deoxyribonucleic acid (Homo sapiens); test: Induction of TOP1-DNA covalent complex stabilization in human HCT-116 cells at 10 to 20 uM by RADAR assay; assay type: cell-based; conditions: dose 10-20 µM, time 2-6 hrs, TDE = time-dependent effect
[16] = Stability in human plasma incubated for 2 hrs by HPLC analysis; assay type: ADME, cell-free; conditions: read-out: Stability
[17] = tested on: DNA topoisomerase 1/Deoxyribonucleic acid (Homo sapiens); test: Induction of TOP1-DNA covalent complex stabilization in human HCT-116 cells after 2 to 8 hrs by immunofluorescence microscopic assay; assay type: cell-based; conditions: dose 20.0 µM, time 2-8 hrs
Calf thymus DNA [18] = test: Displacement of EtBr from calf thymus pUC19 DNA preincubated with EtBr for 15 mins followed by compound addition and measured after 30 mins by […] staining based fluorescence assay; assay type: nucleic-acid assay; conditions: Bos taurus, dose 100-300 µM
[19] = target: T1, DNA topoisomerase 1 (Homo sapiens); test: Inhibition of recombinant human Top1 assessed as reduction in plasmid relaxation at 10 to 20 uM using pUC19 plasmid DNA as substrate measured upto 30 mins by ethidium bromide staining based assay; conditions: dose 10-20 µM
[20] = target: Poly [ADP-ribose] polymerase 1 (Homo sapiens) (UniProt P09874); test: Inhibition of recombinant human PARP1 at 30 uM incubated for 10 mins relative to control
Sequence of Poly [ADP-ribose] polymerase 1 (Homo sapiens) (P09874 whole entry): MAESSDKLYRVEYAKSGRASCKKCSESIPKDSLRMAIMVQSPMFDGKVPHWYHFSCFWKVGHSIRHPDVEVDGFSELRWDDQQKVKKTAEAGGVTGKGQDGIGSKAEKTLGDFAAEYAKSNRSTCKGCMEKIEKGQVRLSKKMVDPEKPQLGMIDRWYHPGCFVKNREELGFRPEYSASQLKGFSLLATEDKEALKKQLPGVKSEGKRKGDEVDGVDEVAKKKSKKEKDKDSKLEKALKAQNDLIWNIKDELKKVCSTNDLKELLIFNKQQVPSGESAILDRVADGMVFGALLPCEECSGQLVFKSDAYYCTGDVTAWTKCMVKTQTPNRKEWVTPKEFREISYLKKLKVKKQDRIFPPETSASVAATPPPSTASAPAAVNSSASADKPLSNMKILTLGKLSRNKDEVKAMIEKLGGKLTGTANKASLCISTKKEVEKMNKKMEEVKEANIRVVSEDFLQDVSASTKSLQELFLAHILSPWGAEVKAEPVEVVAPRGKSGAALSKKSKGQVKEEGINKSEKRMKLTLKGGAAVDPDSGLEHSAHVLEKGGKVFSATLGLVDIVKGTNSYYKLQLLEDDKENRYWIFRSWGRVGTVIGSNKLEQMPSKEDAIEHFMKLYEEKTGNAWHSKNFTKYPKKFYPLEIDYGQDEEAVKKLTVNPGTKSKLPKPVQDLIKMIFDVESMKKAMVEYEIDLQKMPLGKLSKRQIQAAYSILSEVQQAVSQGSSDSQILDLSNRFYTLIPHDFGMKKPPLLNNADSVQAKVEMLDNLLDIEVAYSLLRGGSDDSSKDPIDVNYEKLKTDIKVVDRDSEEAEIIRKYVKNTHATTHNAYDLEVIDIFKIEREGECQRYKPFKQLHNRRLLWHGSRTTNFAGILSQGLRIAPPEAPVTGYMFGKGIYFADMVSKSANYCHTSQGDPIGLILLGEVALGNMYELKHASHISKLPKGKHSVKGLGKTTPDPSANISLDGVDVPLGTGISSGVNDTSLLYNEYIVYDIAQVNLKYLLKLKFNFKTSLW

MIA PaCa-2 = test: Cytotoxicity against human MIA PaCa-2 cells incubated for 72 hrs by MTT assay; assay type: functional, cell-based; conditions: MIA PaCa-2, 72 h
[21] = target: Poly [ADP-ribose] polymerase 1 (Homo sapiens) (UniProt P09874); test: Inhibition of recombinant human PARP1 at 20 uM incubated for 10 mins relative to control
HCT-116 [22] = test: Induction of PARylation in human HCT-116 cells at 1 uM incubated for 4 hrs by Western blotting analysis; assay type: functional, cell-based
Calf thymus DNA [23] = test: Binding affinity to calf thymus pUC19 DNA assessed as intercalating activity by measuring conformational change in DNA at 50 to 300 uM incubated for 30 mins by EtBr staining based agarose gel electrophoresis; assay type: nucleic-acid assay; conditions: Bos taurus, dose 50-300 µM
HCT-116 [24] = test: Induction of cell cycle arrest in human HCT-116 cells assessed as accumulation of cells at S phase at 10 uM incubated for 48 hrs by PI staining based flow cytometry analysis (reference value: 17%); assay type: functional

In the case of `O=C1c2cccc3cccc(c23)C(=O)N1CCSc1nnc(Cn2nc(Cc3ccc(F)cc3)c3ccccc3c2=O)o1`, the Activity (HCT-116 [1]) is reported as “Tde”, the Activity (HCT-116 [2]) is reported as 39.1% and the Activity (HCT-116 [3]) is reported as 29%. For the same molecule, the Activity (HCT-116 [4]) was 30%, the Activity (HCT-116 [5]) was “Dose-Dependent Effect” and the Activity (HCT-116 [6]) was “inactive”. For the same molecule, the Activity [7] was “Active”, the Activity [8] was “Tde” and the Activity (HCT-116 [9]) was “Active”. For the same molecule, the Activity (HCT-116 [10]) was 30.8%, the Activity [11] was “Active” and the Activity (HCT-116 [12]) was “Active”. For the same molecule, the Activity (MCF-10A) was > 80%, the Activity (HCT-116 [13]) was 35% and the Activity (HCT-116 [14]) was 23.8%. The Activity [15] was “Tde”, the remaining at 2 h [16] was > 70% and the Activity [17] was “Dose-Dependent Effect”. The Activity (Calf thymus DNA [18]) was “Dose-Dependent Effect”, the inhibition [19] was “Active” and the inhibition [20] was 35%. The IC50 (MIA PaCa-2) was 4.5 µM, the inhibition [21] was 25% and the Activity (HCT-116 [22]) was “Active”. For the same molecule, the Activity (Calf thymus DNA [23]) was “inactive” and the Activity (HCT-116 [24]) was 33%.

From ChEMBL document CHEMBL5620416, “Design, synthesis and development of a dual inhibitor of Topoisomerase 1 and poly (ADP-ribose) polymerase 1 for efficient killing of cancer cells” (Eur J Med Chem, 2023)
